{"source": "patent US8173392B2", "about": "“In vivo incorporation of unnatural amino acids” (The Scripps Research Institute, priority 2001, dated 2012)", "molecules": {"B1": {"name": "mutant TyrRS (LWJ16) (protein, listed as Methanococcus jannaschii)", "chain": "MDEFEMIKRNTSEIISEEELREVLKKDEKSAQIGFEPSGKIHLGHYLQIKKMIDLQNAGFDIIILLADLHAYLNQKGELDEIRKIGDYNKKVFEAMGLKAKYVYGSTFQLDKDYTLNVYRLALKTTLKRARRSMELIAREDENPKVAEVIYPIMQVNAIHYPGVDVAVGGMEQRKIHMLARELLPKKVVCIHNPVLTGLDGEGKMSSSKGNFIAVDDSPEEIRAKIKKAYCPAGVVEGNPIMEIAKYFLEYPLTIKRPEKFGGDLTVSSYEELESLFKNKELHPMDLKNAVAEELIKILEPIRKRL"}, "B2": {"name": "OAT-RS (1): O-allyl-tyrosine synthetase clone from positive selection and negative FACS screening (protein, listed as Methanococcus jannaschii)", "chain": "B1 chain with Q32S, A158T, I159Y, P162A, S268N"}}, "key": {"[1]": {"system": "valine positions, mutant ValRS", "settings": "mutant E. coli strain grown in presence of Abu; cited from earlier work"}, "mutant TyrRS (LWJ16)": {"molecular_target": "T1, mutant TyrRS (LWJ16) (Methanocaldococcus jannaschii, UniProt Q57834, D158A/E107T/L162P/N268S/Y32Q)", "T1 construct": "The mutant TyrRS (LWJ16) gene with six histidines at its C-terminus was cloned into plasmid pQE-60; His6 (C); made in house", "experiment": "pyrophosphate-exchange assay (adenylate formation with ATP)", "format": "biochemical, M. jannaschii", "settings": "for Kcat / Km: 37° C., pH7.5", "procedure": "Kinetics of adenylate formation of O-methyl-L-tyrosine and tyrosine with ATP catalyzed by the mutant TyrRS (LWJ16) were analyzed in vitro using a pyrophosphate-exchange assay. The mutant TyrRS (LWJ16) gene with six histidines at its C-terminus was cloned into plasmid pQE-60 (Qiagen, CA) to afford plasmid pQE-mJYRS. Protein was purified by immobilized metal affinity chromatography according to manufacture's protocol (Qiagen, CA). Pyrophosphate (PPi) exchange was carried out at 37° C. in a reaction mixture containing 100 mM Tris HCl (pH7.5), 10 mM KF, 5 mM MgCl2, 2 mM ATP, 2 mM NaPPi, 0.1 mg/mL bovine serum albumin, approximately 0.01 microCi/mL [32P]NaPPi, and various concentrations of tyrosine or O-methyl-L-tyrosine. Reactions were initiated with the addition of the purified mutant TyrRS (LWJ16), and aliquots were periodically taken and quenched with 0.2 M NaPPi, 7% perchloric acid, and 2% activated charcoal. The charcoal was filtered and washed with 10 mM NaPPi (pH2), then measured by scintillation counting to determine the 32P levels in charcoal-adsorbed ATP. Values of kcat and Km were calculated by direct fitting of the Michaelis-Menten equation using nonlinear regression analysis."}, "E. coli": {"system": "E. coli", "experiment": "effect of the amino acid on growth rate of E. coli", "format": "cell-based", "settings": "1 mM", "procedure": "Following the two rounds of selection and DNA shuffling, a clone (mutant TyrRS (LWJ16)) was evolved whose survival in chloramphenicol was dependent on the addition of 1 mM O-methyl-L-tyrosine to the growth media. In the absence of O-methyl-L-tyrosine, cells harboring the mutant TyrRS (LWJ16) were not viable on minimal media plates containing 1% glycerol, 0.3 mM leucine (GMML), and 15 micrograms/mL of chloramphenicol. Cells were able to grow on GMML plates with 125 micrograms/mL chloramphenicol in the presence of 1 mM O-methyl-L-tyrosine. Similar results were obtained in liquid GMML."}, "[2]": {"system": "cells expressing m-acetyl phenylalanine-incorporated DHFR", "quoted_text": "Cells expressing the “ketone handle”-incorporated DHFR were incubated with fluorescein hydrazide solution. After 36 hours at 4° C. and extensive washes to remove excess fluorescein hydrazide, the labeled DHFR protein was purified and subjected to fluorescence emission tests. As a negative control in parallel, m-methoxy phenylalanine-incorporated DHFR was also purified with the same procedures."}, "[3]": {"system": "yeast amber suppressor tRNAPheCUA/phenylalanyl-tRNA synthetase pair", "settings": "cited from earlier work"}, "SjGST homodimer": {"system": "SjGST homodimer", "experiment": "photo-activated crosslinking of SjGST (365 nm, SDS-PAGE)", "design": "species or system Schistosoma Japonica", "settings": "long wavelength UV irradiation, 5 minutes", "source_text": "In vivo incorporation of pBpa into GST. […] This protein is a dimer of two identical subunits which have previously been crosslinked non-specifically using gluteraldehyde. The crystal structure of the dimeric Schistosoma Japonica glutathione-S-transferase (SjGST) (McTigue, M. A., Williams, D. R. & Tainer, J. A. Journal of Molecular Biology 246, 21-27 (1995)) was used to identify two sites to substitute with pBp: residue Phe52, which is buried in the dimer interface of the crystal structure, and residue Tyr198 which is solvent exposed. The codons corresponding to Phe52 or Tyr198 in the gene for a 27 kDa protein Sj GST, were replaced with amber codons. The orthogonal synthetase tRNA pair was then used to site specifically incorporate pBpa into SjGST in E. coli at these sites. Upon irradiation with long wavelength ultraviolet radiation, purified SjGST was converted to a covalently linked homodimer as judged by denaturing SDS PAGE. Approximately 70% of the SjGST present was crosslinked in 5 minutes.\nPhoto-activated crosslinking. Crosslinking reactions were performed in a 96 well microtitre plate (Nuncsorb) using 100 μL of 10 ng/μL SjGST (in 50 mM NaH2Po4, 300 mM NaCl, 250 mM imidazole) at 4° C. Samples were irradiated at 365 nm using a handheld UV lamp (1 SV, 60 Hz, 0.2 A; Spectronics, NY, USA), for 1 min or 5 min. […]"}, "[4]": {"system": "Asp112TAG codon in the CAT gene", "experiment": "in vivo chloramphenicol acetyltransferase assay (suppression of Asp112TAG codon in CAT gene, pYC-J17)", "format": "cell-based, E. coli", "settings": "GMML plates", "procedure": "A positive selection was then applied that is based on suppression of an amber stop codon at a nonessential position (Asp112) in the chloramphenicol acetyltransferase (CAT) gene (M. Pastrnak, T. J. Magliery, P. G. Schultz, Helvetica Chimica Acta. 83, 2277-86 (2000)). Cells were grown in media containing the unnatural amino acid and selected for their survival in the presence of various concentration of chloramphenicol. If a mutant TyrRS charges the orthogonal mtRNACUA^Tyr with any amino acid, either natural or unnatural, the cell produces CAT and survives.\nThe gene encoding mtRNACUA^Tyr under the control of the lpp promoter and rrnC terminator was inserted into plasmid pACMD112TAG (a pACYC184 plasmid with a TAG stop codon replacing Asp112 in its CAT gene (M. Pastrnak, T. J. Magliery, P. G. Schultz, Helvetica Chimica Acta. 83, 2277-86 (2000))) to afford plasmid pYC-J17. Supercoiled DNA encoding the TyrRS library was transformed into E. coli DH10B competent cells containing pYC-J17 to yield a library of size greater than 3×10^9 cfu, ensuring complete coverage of the original library. Cells were then plated on minimal media plates containing 1% glycerol and 0.3 mM leucine (GMML) with 17 micrograms/mL tetracycline(Tet), 25 micrograms/mL kanamycin (Kan), 50 micrograms/mL of chloramphenicol (Cm), and 1 mM unnatural amino acid. […]"}, "[5]": {"system": "amber codons in T7 RNA polymerase gene driving GFPuv", "experiment": "fluorimetric analysis, T7 RNA polymerase/GFPuv reporter (pREP/YC-JYCUA)", "format": "cell-based, E. coli", "settings": "presence versus absence of OAT", "procedure": "Construction of a multipurpose reporter plasmid. In order to construct a multipurpose plasmid to be used both for selecting and screening variants of a M. jannaschii TyrRS, plasmid pREP(10) was combined with plasmid pYC-J17 (Wang, L, Brock, A., Herberich, B. & Schultz, P. G., Science, 2001, 292, 498-500) to obtain pREP/YC-JYCUA (FIG. 7b). Plasmid pREP/YC-JYCUA was assayed for function with a compatible plasmid expressing a variant of M. jannaschii TyrRS (pBK-mJYRS; Wang, L, Brock, A., Herberich, B. & Schultz, P. G., Science, 2001, 292, 498-500) selective for incorporating O-Methyl-Tyrosine (OMY).\nAs described above, the T7 RNA polymerase/GFP system can be used to quantitatively compare the activities of synthetase variants. […] The fluorescence enhancement for cells grown in the presence versus the absence of the unnatural amino acid is thus about 6-fold higher for cells expressing OAT-RS (1) from selection and screening than for cells expressing the OAT-RS clone derived from positive/negative selection using barnase. […] However, the fluorescence enhancement for cells grown in the presence versus the absence of an unnatural amino acid is expected to represent a lower limit for the fidelity of unnatural amino acid incorporation, as competition of unnatural amino acids for being bound by an evolved synthetase variant would reduce binding of natural amino acids. […]"}}, "note": "Positions count from the first letter of the chain named."}
{"molecule": "CCC(N)C(=O)O", "note": "(centres unmarked) [Abu, aminobutyrate]", "values": [{"measurement": "valines replaced at each valine position in the native protein", "setting": "[1]", "value": "about 24%"}]}
{"molecule": "N[C@@H](Cc1ccc(O)cc1)C(=O)O", "note": "[L-tyrosine]", "values": [{"measurement": "Km higher than that for O-methyl-L-tyrosine", "setting": "mutant TyrRS (LWJ16)", "value": "approximately 13 fold"}, {"measurement": "kcat down relative to that for O-methyl-L-tyrosine", "setting": "mutant TyrRS (LWJ16)", "value": 8, "unit": "fold"}, {"measurement": "Kcat", "setting": "mutant TyrRS (LWJ16)", "value": "1.8 ± 0.2 10 − 3 s − 1"}, {"measurement": "Km", "setting": "mutant TyrRS (LWJ16)", "value": 5.83, "unit": "mM"}]}
{"molecule": "COc1ccc(C[C@H](N)C(=O)O)cc1", "note": "[O-methyl-L-tyrosine]", "values": [{"measurement": "kcat/Km higher than that of tyrosine", "setting": "mutant TyrRS (LWJ16)", "value": "about 100 fold"}, {"measurement": "Kcat", "setting": "mutant TyrRS (LWJ16)", "value": "14 ± 1 10 − 3 s − 1"}, {"measurement": "Km", "setting": "mutant TyrRS (LWJ16)", "value": 0.443, "unit": "mM"}, {"measurement": "effect on growth rate of E. coli", "setting": "E. coli", "value": "does not significantly affect the growth rate"}]}
{"molecule": "NN1C(=O)c2ccccc2C12c1ccc(O)cc1Oc1cc(O)ccc12", "note": "[fluorescein hydrazide]", "values": [{"measurement": "cell permeability", "setting": "[2]", "value": "cell-permeable"}, {"measurement": "lysis of cells", "setting": "[2]", "value": "does not lyse cells"}]}
{"molecule": "N[C@@H](Cc1ccc(F)cc1)C(=O)O", "note": "[p-F-Phe, p-fluorophenylalanine]", "values": [{"measurement": "amino acid found at the Phe codon positions", "setting": "[3]", "value": 7, "unit": "%"}, {"measurement": "translation of the mutagenesis site with the amino acid", "setting": "[3]; excess of p-F-Phe in growth media", "value": "64-75%"}]}
{"molecule": "SjGST: Schistosoma Japonica glutathione-S-transferase with pBpa, presumably at Phe52 in the dimer interface", "values": [{"measurement": "SjGST crosslinked to covalent homodimer", "setting": "SjGST homodimer", "value": "Approximately 70%"}]}
{"molecule": "B1", "values": [{"measurement": "chloramphenicol concentration at which cells were not viable", "setting": "[4]; absence of O-methyl-L-tyrosine", "value": 15, "unit": "micrograms/mL"}, {"measurement": "chloramphenicol concentration at which cells were able to grow", "setting": "[4]; presence of 1 mM O-methyl-L-tyrosine", "value": 125, "unit": "micrograms/mL"}]}
{"molecule": "B2", "values": [{"measurement": "fluorescence enhancement higher than for OAT-RS clone from positive/negative selection using barnase", "setting": "[5]", "value": "about 6 fold"}]}
